Measured values published in PubChem BioAssay AID1817 (Sanford-Burnham Center for Chemical Genomics, 2009).
Calls of active or inactive are those of the source.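 Rule for the calls: active = displacement of at least 50% at 20 µM, with a fluorescence ratio check between 0.3 and a set limit; inactive = the rest.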

Target: E3 ubiquitin-protein ligase SIAH1 (Homo sapiens) (UniProt Q8IUQ4)
Experiment: Siah-1 peptide-binding antagonists, primary screen, biochemical, fluorescence polarization, rhodamine-plectin, uHTS (AID 1817)
Settings: Siah-1 / rhodamine-plectin peptide fluorescence polarization

E3 ubiquitin-protein ligase SIAH1 (Homo sapiens), sequence (Q8IUQ4 whole entry, looked up): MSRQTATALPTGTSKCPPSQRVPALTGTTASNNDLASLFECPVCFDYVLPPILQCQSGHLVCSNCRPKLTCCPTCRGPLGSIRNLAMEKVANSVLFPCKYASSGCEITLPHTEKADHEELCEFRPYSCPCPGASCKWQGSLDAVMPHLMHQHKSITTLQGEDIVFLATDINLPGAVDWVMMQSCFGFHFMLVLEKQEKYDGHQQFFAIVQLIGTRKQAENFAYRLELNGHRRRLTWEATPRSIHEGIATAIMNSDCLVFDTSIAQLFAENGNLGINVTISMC

Row | Structure (SMILES) | IC50
1 | COc1ccc(CNC(=S)Nc2cc(OC)ccc2OC)cc1 | > 200 µM (inactive)
2 | CC(=O)Nc1ccc(N=Cc2c(O)c(C(=O)Nc3ccccc3)cc3ccccc23)cc1 | 24.9 µM
3 | CSc1n[nH]c(NCc2ccc(Cl)cc2)n1 | > 200 µM (inactive)
4 | CCC(C)N1C(=O)/C(=C/c2c(NCCCOC(C)C)nc3c(C)cccn3c2=O)SC1=S (configuration not stated) | > 200 µM (inactive)
5 | O=C(Nc1nc(-c2cc3ccccc3oc2=O)cs1)c1ccco1 | > 200 µM (inactive)
6 | O=C(CCN1CCN(Cc2ccccc2)CC1)Nc1cccc(Cl)c1 | > 200 µM (inactive)
7 | COC(=O)C1CC(=O)N(c2ccc(OCc3ccccc3Cl)cc2)C1 (configuration not stated) | > 200 µM (inactive)
8 | COC(=O)c1c(C(=O)OC)c2cccc3cc(-c4ccccc4)c4ccc1c4n32 | inactive
9 | Cc1cc(Cl)ccc1NC(=O)CN1CCC(C(O)(c2ccccc2)c2ccccc2)CC1 | > 200 µM (inactive)
10 | CCCCn1c(NC(=O)c2ccc(Br)o2)c(C(=O)OCC)c2nc3ccccc3nc21 | > 200 µM (inactive)
11 | O=C(Nc1cccc(Oc2ccc(C(=O)O)c(C(=O)O)c2)c1)c1ccc(-c2ccccc2)cc1 | 8.53 µM
12 | O=C(/C=C/c1ccco1)OCc1nnc(-c2ccccc2)o1 | > 200 µM (inactive)
13 | CC1=CC(C)(C)N2C(=O)C(=Nc3ccc(O)cc3)c3cccc1c32 | inactive
14 | COc1ccc(C(C(=O)NCc2ccccc2)N(Cc2ccco2)C(=O)c2cnccn2)cc1 (configuration not stated) | > 200 µM (inactive)
15 | COC/C=C/C1=CC2=CC(=O)C(C)(OC(=O)c3ccco3)C(=O)C2=CO1 (configuration not stated) | inactive
16 | O=S(=O)(Nc1cc2nc3ccccc3nc2n1Cc1ccccc1)c1ccc(Cl)cc1 | > 200 µM (inactive)
17 | CCn1c(O)c(C=Nc2ccc(N3CCOCC3)cc2)c(=O)n(CC)c1=S | > 200 µM (inactive)
18 | CCCCn1c(NS(=O)(=O)c2ccc(C)cc2)c(S(=O)(=O)c2ccccc2)c2nc3ccccc3nc21 | > 200 µM (inactive)
19 | Oc1c(Br)cc(Br)cc1CNc1ccc(F)cc1 | > 200 µM (inactive)
20 | O=C(Nc1cc([N+](=O)[O-])ccc1N1CCOCC1)c1cccs1 | > 200 µM (inactive)
21 | CCOC(=O)C1(C)C=C(Nc2ccc(O)cc2)C(=O)N1c1ccc(O)cc1 (configuration not stated) | > 200 µM (inactive)
22 | CCN(CC)CCOC(=O)c1ccc(N/C=C(/C#N)c2nc(-c3cc4ccccc4oc3=O)cs2)cc1 | 11.2 µM
23 | Cc1ccc(C(=O)NC2CC3CCCC(C2)N3C(=O)NC2CCCCC2)cc1 (configuration not stated) | > 200 µM (inactive)
24 | O=C(O)CCN1C(=O)/C(=C/c2cn(-c3ccccc3)nc2-c2cccs2)SC1=S | > 200 µM (inactive)
25 | CN(C)CCOC(=O)CCc1ccccc1 | > 200 µM (inactive)

Row | Structure (SMILES) | IC50
26 | C=CCn1c(NS(=O)(=O)c2ccccc2)c(S(=O)(=O)c2ccc(C)cc2)c2nc3ccccc3nc21 | > 200 µM (inactive)
27 | O=C(Nc1ccccc1N1CCCCC1)c1ccc(-c2cccc(Cl)c2)o1 | > 200 µM (inactive)
28 | N#C/C(=C\c1c(F)cccc1Cl)C(=O)NC1CC1 | > 200 µM (inactive)
29 | Cc1ccc(S(=O)(=O)N2CCC(=O)N(C(COCc3cccc(C)c3)Cc3ccccc3)CC2)cc1 (configuration not stated) | > 200 µM (inactive)
30 | Cc1c(Cc2ccccc2)c(=O)oc2c(C)c(OCC(=O)N[C@@H](Cc3ccccc3)C(=O)O)ccc12 | inactive
31 | Cc1cc(C)n(-c2ccc(Cl)c(C(=O)Nc3cc(C(F)(F)F)ccc3Cl)n2)n1 | > 200 µM (inactive)
32 | O=C(CC1Nc2cccc3cccc(c23)NC1=O)Nc1ccccc1 (configuration not stated) | > 200 µM (inactive)
33 | CCOc1cc(/C=C(\C#N)C(=O)Nc2ccccc2C(=O)O)ccc1OC(=O)c1ccc(C)cc1 | > 200 µM (inactive)
34 | Cc1ccc2c(c1)N(CC(=O)NCCc1ccc(Cl)cc1)C(=O)c1cccnc1O2 | > 200 µM (inactive)
35 | Cc1c(C(=O)O)sc2nc(CSc3ncc(C(F)(F)F)cc3Cl)[nH]c(=O)c12 | > 200 µM (inactive)
36 | CC(C)COc1ccc(-c2nn(-c3ccccc3)cc2/C=C2/SC(=S)N(CC(=O)O)C2=O)cc1 | > 200 µM (inactive)
37 | O=c1ccc2c(-c3ccccc3)c3ccc(O)cc3oc-2c1 | 11.1 µM
38 | c1ccc(C(c2ccccc2)N2CCN(C(c3ccccn3)c3nnnn3C3CCCC3)CC2)cc1 (configuration not stated) | > 200 µM (inactive)
39 | COc1cc(CNc2ccc(O)cc2)cc(Br)c1OCc1ccccc1F | inactive
40 | Nc1ccc(S(=O)(=O)Nc2ccc(S(N)(=O)=O)cc2)cc1 | > 200 µM (inactive)
41 | CCOC(=O)c1c(C)[nH]c2c1-c1ccccc1C(=O)C2=O | > 200 µM (inactive)
42 | O=C1C=C(NCc2ccccc2)c2ccccc2C1=O | > 200 µM (inactive)
43 | CC1CCN(C(=O)C2CCC(C)(C(=O)O)C2(C)C)CC1 (configuration not stated) | > 200 µM (inactive)
44 | CC1CCN(S(=O)(=O)c2nnc(NC(=O)c3cccc(Cl)c3)s2)CC1 | > 200 µM (inactive)
45 | Oc1ccc(N=Cc2sc3ccccc3c2Cl)cc1 | inactive
46 | O=C(Nc1ccc(Br)cc1)c1ccc(N2C(=O)C3CC=CCC3C2=O)cc1 (configuration not stated) | 18.6 µM
47 | O=c1[nH]c2ccc(S(=O)(=O)N3CCCCC3)cc2s1 | > 200 µM (inactive)
48 | Cc1ccc(CNc2ccc(O)cc2)cc1 | inactive
49 | Nc1c(C(=O)NCc2ccco2)c2nc3ccccc3nc2n1CCc1ccccc1 | > 200 µM (inactive)
50 | CC(=O)c1ccc(S(=O)(=O)Nc2ccc(-c3ccc4nnc(C)n4n3)cc2)cc1 | > 200 µM (inactive)

Row | Structure (SMILES) | IC50
51 | O=C1CCCC(O)=C1N=Nc1ccc(C(=O)O)cc1 | > 200 µM (inactive)
52 | Cc1ccc(OCCCN2CCOCC2)cc1 | > 200 µM (inactive)
53 | CC(C)(C)c1cc(-c2csc(Nc3ccccc3)[n+]2Cc2ccc(C(=O)O)cc2)cc(C(C)(C)C)c1O | > 200 µM (inactive)
54 | Cc1ccccc1-c1nc2c3ccccc3nc(=S)n2[nH]1 | > 200 µM (inactive)
55 | Cc1ccn2c(C(=O)CSc3ccc(Cl)cc3Cl)c(C)nc2c1 | > 200 µM (inactive)
56 | COc1ccc(-c2cnnn2-c2ccc(N)cc2)cc1OC | > 200 µM (inactive)
57 | O=S(=O)(Nc1nc2ccccc2nc1Nc1ccc(N2CCOCC2)cc1)c1cc(Cl)ccc1Cl | > 200 µM (inactive)
58 | O=C(Nc1ccc(Cl)cc1)OCc1cn(-c2ccccc2)nn1 | > 200 µM (inactive)
59 | CCC1=Nc2cc(C(=O)O)ccc2Sc2ccccc21 | > 200 µM (inactive)
60 | CCCCn1c(NC(=O)c2ccco2)c(S(=O)(=O)c2ccc(C)cc2)c2nc3ccccc3nc21 | > 200 µM (inactive)
61 | CC(NC(=O)Nc1ccc(O)cc1)(C(F)(F)F)C(F)(F)F | > 200 µM (inactive)
62 | O=c1[nH]c(-c2ccc(F)cc2)nc2c1sc(=S)n2-c1ccccc1 | 19.6 µM
63 | Cc1ccccc1NC(=O)CN1C(=O)N/C(=C\c2ccccc2OCc2ccc(C(=O)O)cc2)C1=O | 11.5 µM
64 | COc1cccc2cc(C(=O)N3CCc4ccccc43)c(=O)oc12 | > 200 µM (inactive)
65 | CC1CCCCC1NC(=O)CCS(=O)(=O)c1ccc2c(c1)NC(=O)CO2 (configuration not stated) | > 200 µM (inactive)
66 | COc1ccc(CCNC(=O)c2ccc(S(=O)(=O)N(C)c3ccccc3)cc2)cc1OC | > 200 µM (inactive)
67 | N#CC1C=Cc2ccccc2N1C(=O)c1ccccc1 (configuration not stated) | > 200 µM (inactive)
68 | Cc1cc(C)c(C#N)c(Nc2ccccc2C)n1 | > 200 µM (inactive)
69 | O=S(=O)(O)c1cc(O)c2c(O)c(N=Nc3cc(Cl)ccc3O)c(S(=O)(=O)O)cc2c1 | 5.13 µM
70 | CCN(CC)c1ccc(C=N/C(C#N)=C(\N)C#N)cc1 | > 200 µM (inactive)
71 | COCCCn1c(N)c(C(=O)NCc2ccco2)c2nc3ccccc3nc21 | > 200 µM (inactive)
72 | C[C@]12CCC3C(CC=C4C[C@@H](O)CC[C@@]43C)C1CCC2[C@]1(C)CCC(=O)O1 (some centres not stated) | > 200 µM (inactive)
73 | O=C(NCc1c(F)cccc1F)c1cc(COc2c(F)cccc2F)on1 | > 200 µM (inactive)
74 | CCCCN(Cc1cc2cc(OC)ccc2[nH]c1=O)S(=O)(=O)c1ccc(C)cc1 | > 200 µM (inactive)
75 | Cc1ccc(-n2cccn2)c([C@@H]2C[C@H]3CN(C)C(=O)[C@]34CCCN24)c1 | > 200 µM (inactive)

Row | Structure (SMILES) | IC50
76 | CS(=O)(=O)N1CCN(c2ccc([N+](=O)[O-])c(SCc3ccco3)c2)CC1 | > 200 µM (inactive)
77 | O=c1[nH]n(-c2ccc([N+](=O)[O-])cc2)c(=O)c2ccccc12 | 15.7 µM
78 | CC12CCC(C(=O)NCc3ccc(Cl)cc3)(OC1=O)C2(C)C (configuration not stated) | > 200 µM (inactive)
79 | CCN(CC)CCOC(=O)c1ccc(N/C=C(/C#N)c2nc(-c3ccc(OC)c(OC)c3)cs2)cc1 | 12.5 µM
80 | CCC(C)[C@H](NC(=O)N1CCn2c1nc1ccccc12)C(=O)NCCc1ccc(OC)c(OC)c1 (some centres not stated) | > 200 µM (inactive)
81 | CSc1ccccc1C(=O)NC(C)c1ccc(-n2ccnc2)cc1 (configuration not stated) | > 200 µM (inactive)
82 | O=C(O)CCCNc1cc(N2CCN(C(=O)c3ccco3)CC2)c2noc3c2c1C(=O)c1ccccc1-3 | 4.21 µM
83 | NS(=O)(=O)c1ccc(NS(=O)(=O)c2ccc(NC(=O)c3ccc(-c4ccccc4)cc3)cc2)cc1 | 1.56 µM
84 | COc1cc(CC(=O)NCc2ccc3c(c2)OCO3)cc(OC)c1OC | > 200 µM (inactive)
85 | O=C(Cn1cnc2scc(-c3ccccc3)c2c1=O)NCc1ccco1 | > 200 µM (inactive)
86 | COc1cc(/C=C(\C#N)c2nc3ccccc3[nH]2)ccc1OC(=O)c1ccco1 | > 200 µM (inactive)
87 | O=C(NCc1ccc(Cl)cc1)c1cc(-c2cccs2)on1 | 8.13 µM
88 | C[N+]1(CCNC(=O)/C=N/O)CCCCC1 | > 200 µM (inactive)
89 | Nc1ccc(O)c2c1C(=O)c1ccccc1C2=O | 1.52 µM
90 | S=c1[nH]nc(Cc2cccc3ccccc23)n1-c1ccccc1 | > 200 µM (inactive)
91 | CCNc1ccc(C(=O)O)cc1N | inactive
92 | NS(=O)(=O)c1ccc(NC(=O)c2cccc(N3C(=O)c4ccccc4C3=O)c2)cc1 | inactive
93 | Cc1cc(C)nc(N=Nc2c(O)n(Cc3ccc(Cl)cc3)c3ccccc23)n1 | > 200 µM (inactive)
94 | CC(C)(C)c1ccc(C(CC(=O)O)NC(=O)Cc2ccc(F)cc2)cc1 (configuration not stated) | 25.6 µM
95 | O=C(CSc1ccc(Br)c2cccc(Cl)c12)Nc1ccc(S(=O)(=O)Nc2nccs2)cc1 | > 200 µM (inactive)
96 | Cc1ccc(NC(=O)CCC(=O)NNC(=O)c2ccccc2[N+](=O)[O-])c(C)c1 | > 200 µM (inactive)
97 | Oc1ccc(N=Cc2ccc(OCc3ccccc3)cc2)cc1 | inactive
